Data as given in PubChem BioAssay (NCI).
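Growth conditions: 96-well plates. Treatment: test compound, 48 hours, 5 concentrations. Analysis: linear interpolation between bracketing concentrations; unreached endpoints set to highest concentration. The concentration for full growth arrest is given as TGI.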

Assays:
Test in all cases: DTP human tumour cell line panel, 48 h
SK-MEL-2 melanoma = test system: SK-MEL-2 melanoma
OVCAR-8 ovarian = test system: OVCAR-8 ovarian
UACC-257 melanoma = test system: UACC-257 melanoma
A549 NSCLC = test system: A549 NSCLC
SK-MEL-28 melanoma = test system: SK-MEL-28 melanoma
OVCAR-3 ovarian = test system: OVCAR-3 ovarian
PC-3 prostate = test system: PC-3 prostate
NCI-H23 lung = test system: NCI-H23 lung
SNB-19 CNS = test system: SNB-19 CNS
SK-OV-3 ovarian = test system: SK-OV-3 ovarian
EKVX NSCLC = test system: EKVX NSCLC
MOLT-4 leukemia = test system: MOLT-4 leukemia
IGROV1 ovarian = test system: IGROV1 ovarian
HT29 colon = test system: HT29 colon
MDA-MB-435 = test system: MDA-MB-435
HOP-92 NSCLC = test system: HOP-92 NSCLC
RXF 393 renal = test system: RXF 393 renal
HL-60(TB) leukemia = test system: HL-60(TB) leukemia
K-562 leukemia = test system: K-562 leukemia
A498 renal = test system: A498 renal
UO-31 renal = test system: UO-31 renal
SF-268 CNS = test system: SF-268 CNS
HCT-116 colon = test system: HCT-116 colon
SN12C renal = test system: SN12C renal
NCI-H460 lung = test system: NCI-H460 lung
HCT-15 colon = test system: HCT-15 colon
T-47D breast = test system: T-47D breast
MCF7 breast = test system: MCF7 breast
OVCAR-5 ovarian = test system: OVCAR-5 ovarian
KM12 colon = test system: KM12 colon
MDA-MB-231 breast = test system: MDA-MB-231 breast
ACHN renal = test system: ACHN renal
LOX IMVI melanoma = test system: LOX IMVI melanoma
CCRF-CEM leukemia = test system: CCRF-CEM leukemia
MDA-N = test system: MDA-N
MALME-3M melanoma = test system: MALME-3M melanoma
SF-295 CNS = test system: SF-295 CNS
SW-620 colon = test system: SW-620 colon
SF-539 CNS = test system: SF-539 CNS
HOP-62 NSCLC = test system: HOP-62 NSCLC
BT-549 breast = test system: BT-549 breast
RPMI-8226 leukemia = test system: RPMI-8226 leukemia
M14 melanoma = test system: M14 melanoma
U251 CNS = test system: U251 CNS
DU-145 prostate = test system: DU-145 prostate
NCI-H226 lung = test system: NCI-H226 lung
786-0 renal = test system: 786-0 renal
UACC-62 melanoma = test system: UACC-62 melanoma
SR leukemia = test system: SR leukemia
COLO 205 colon = test system: COLO 205 colon
SNB-75 CNS = test system: SNB-75 CNS
HCC-2998 colon = test system: HCC-2998 colon
SK-MEL-5 melanoma = test system: SK-MEL-5 melanoma
NCI-H522 lung = test system: NCI-H522 lung
TK-10 renal = test system: TK-10 renal
OVCAR-4 ovarian = test system: OVCAR-4 ovarian
CAKI-1 renal = test system: CAKI-1 renal
HS 578T breast = test system: HS 578T breast
NCI/ADR-RES ovarian = test system: NCI/ADR-RES ovarian

Structure (SMILES): C#CCOC(=O)C=[N+]=[N-]
- TGI (SK-MEL-2 melanoma): > 10 µM
- TGI (OVCAR-8 ovarian): > 10 µM
- TGI (UACC-257 melanoma): > 10 µM
- TGI (A549 NSCLC): > 10 µM
- TGI (SK-MEL-28 melanoma): > 10 µM
- TGI (OVCAR-3 ovarian): > 10 µM
- TGI (PC-3 prostate): > 10 µM
- TGI (NCI-H23 lung): > 10 µM
- TGI (SNB-19 CNS): > 10 µM
- TGI (SK-OV-3 ovarian): > 10 µM
- TGI (EKVX NSCLC): > 10 µM
- TGI (MOLT-4 leukemia): > 10 µM
- TGI (IGROV1 ovarian): > 10 µM
- TGI (HT29 colon): > 10 µM
- TGI (MDA-MB-435): > 10 µM
- TGI (HOP-92 NSCLC): > 10 µM
- TGI (RXF 393 renal): > 10 µM
- TGI (HL-60(TB) leukemia): > 10 µM
- TGI (K-562 leukemia): > 10 µM
- TGI (A498 renal): > 10 µM
- TGI (UO-31 renal): > 10 µM
- TGI (SF-268 CNS): > 10 µM
- TGI (HCT-116 colon): > 10 µM
- TGI (SN12C renal): > 10 µM
- TGI (NCI-H460 lung): > 10 µM
- TGI (HCT-15 colon): > 10 µM
- TGI (T-47D breast): > 10 µM
- TGI (MCF7 breast): > 10 µM
- TGI (OVCAR-5 ovarian): > 10 µM
- TGI (KM12 colon): > 10 µM
- TGI (MDA-MB-231 breast): > 10 µM
- TGI (ACHN renal): > 10 µM
- TGI (LOX IMVI melanoma): > 10 µM
- TGI (CCRF-CEM leukemia): > 10 µM
- TGI (MDA-N): > 10 µM
- TGI (MALME-3M melanoma): > 10 µM
- TGI (SF-295 CNS): > 10 µM
- TGI (SW-620 colon): > 10 µM
- TGI (SF-539 CNS): > 10 µM
- TGI (HOP-62 NSCLC): > 10 µM
- TGI (BT-549 breast): > 10 µM
- TGI (RPMI-8226 leukemia): > 10 µM
- TGI (M14 melanoma): > 10 µM
- TGI (U251 CNS): > 10 µM
- TGI (DU-145 prostate): > 10 µM
- TGI (NCI-H226 lung): > 10 µM
- TGI (786-0 renal): > 10 µM
- TGI (UACC-62 melanoma): > 10 µM
- TGI (SR leukemia): > 10 µM

Structure (SMILES): COC(=O)[C@H](Cc1ccccc1)NC(=O)N(CCN(CCC#N)C(=O)N[C@H](C(=O)OC)C(C)C)c1ccccc1
- TGI (SK-MEL-2 melanoma): > 100 µM
- TGI (OVCAR-8 ovarian): > 100 µM
- TGI (COLO 205 colon): > 100 µM
- TGI (UACC-257 melanoma): > 100 µM
- TGI (A549 NSCLC): > 100 µM
- TGI (SK-MEL-28 melanoma): > 100 µM
- TGI (OVCAR-3 ovarian): > 100 µM
- TGI (PC-3 prostate): > 100 µM
- TGI (NCI-H23 lung): > 100 µM
- TGI (SNB-19 CNS): > 100 µM
- TGI (SK-OV-3 ovarian): > 100 µM
- TGI (EKVX NSCLC): > 100 µM
- TGI (SNB-75 CNS): > 100 µM
- TGI (MOLT-4 leukemia): > 100 µM
- TGI (IGROV1 ovarian): > 100 µM
- TGI (HCC-2998 colon): > 100 µM
- TGI (MDA-MB-435): > 100 µM
- TGI (HOP-92 NSCLC): 80.5 µM
- TGI (RXF 393 renal): > 100 µM
- TGI (SK-MEL-5 melanoma): > 100 µM
- TGI (NCI-H522 lung): > 100 µM
- TGI (A498 renal): > 100 µM
- TGI (UO-31 renal): > 100 µM
- TGI (SF-268 CNS): > 100 µM
- TGI (HCT-116 colon): > 100 µM
- TGI (SN12C renal): > 100 µM
- TGI (HCT-15 colon): > 100 µM
- TGI (T-47D breast): > 100 µM
- TGI (TK-10 renal): > 100 µM
- TGI (MCF7 breast): > 100 µM
- TGI (OVCAR-5 ovarian): > 100 µM
- TGI (KM12 colon): > 100 µM
- TGI (MDA-MB-231 breast): > 100 µM
- TGI (ACHN renal): > 100 µM
- TGI (LOX IMVI melanoma): > 100 µM
- TGI (OVCAR-4 ovarian): > 100 µM
- TGI (CCRF-CEM leukemia): > 100 µM
- TGI (MDA-N): > 100 µM
- TGI (CAKI-1 renal): > 100 µM
- TGI (MALME-3M melanoma): > 100 µM
- TGI (SF-295 CNS): > 100 µM
- TGI (SW-620 colon): > 100 µM
- TGI (SF-539 CNS): > 100 µM
- TGI (HOP-62 NSCLC): > 100 µM
- TGI (BT-549 breast): > 100 µM
- TGI (HS 578T breast): > 100 µM
- TGI (RPMI-8226 leukemia): > 100 µM
- TGI (M14 melanoma): > 100 µM
- TGI (U251 CNS): > 100 µM
- TGI (DU-145 prostate): > 100 µM
- TGI (NCI-H226 lung): > 100 µM
- TGI (786-0 renal): > 100 µM
- TGI (UACC-62 melanoma): > 100 µM
- TGI (NCI/ADR-RES ovarian): > 100 µM
